Assay in all cases: inhibition of tumour cell growth, NCI panel, 48 h
Assay [1] concerns LOX IMVI melanoma.
For assay [2], the system named is SK-MEL-2 melanoma.
Assay [3] deals with UO-31 renal.
Assay [4] deals with SR leukemia.
In assay [5] the test system is TK-10 renal.
The test system of assay [6] is ACHN renal.
Assay [7] deals with OVCAR-5 ovarian.
Assay [8] deals with SF-295 CNS.
Assay [9] concerns COLO 205 colon.
In assay [10] the test system is HOP-62 NSCLC.

Molecules are shown by their SMILES. Where “and” joins values, the source holds several entries; their conditions need not be identical. Equal entries are not always repeated.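 How tested: cells in 96-well plates exposed to compound for 48 hours at five concentrations. At the GI50, growth is halved. TGI marks complete inhibition of growth.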 Some results are limits rather than exact numbers.

With `COc1ccc(Nc2nnc(-c3cc(O)ccc3O)s2)cc1`, the GI50 was 25.7 µM in [1]; 23.1 µM in [2]; 47.3 µM in [3]; 1.41 µM in assay [4]; 48.4 µM in assay [5]; > 50 µM in assay [6]. In addition, the GI50 in [7], in assay [8] and in [9] was > 50 µM in each case. Also, the TGI was > 50 µM in assay [1]; > 50 µM in assay [2]; > 50 µM in [3]; 34.2 µM in [4]; > 50 µM in [5]; > 50 µM in [6]. For the same molecule, the TGI in assay [7], in [8] and in assay [9] was > 50 µM throughout.
`C=C(C)[C@@H]1CC[C@]2(C)[C@H](CC=C3[C@@H]4CC(C)(C)CC[C@]4(C(N)=O)CC[C@]32C)[C@@]1(C)CCC#N`: the GI50 was 3.69 µM in assay [1]; 5.28 µM in assay [2]; 7.44 µM in [10]; 2.55 µM in [3]; 7.32 µM in assay [5]; 3.01 µM in assay [6]. In addition, the results for the GI50 in assay [7], in assay [8] and in [9] were 4.35 µM, 3.91 µM and 2.6 µM, respectively. Moreover, the TGI in assay [1] was > 100 µM; in assay [2], > 100 µM; in assay [10], > 100 µM; in assay [3], 7.52 µM; in assay [5] it was > 100 µM; in assay [6], 51.2 µM. For the same molecule, the values for the TGI in assay [7], in [8] and in assay [9] were > 100 µM, > 100 µM and 7.36 µM, respectively.
On to `O=C(N[C@@H](c1ccc(Cl)c(Cl)c1)C1CNC1)c1ccc2cnccc2c1`, for which the GI50 in [1] was 0.716 µM; in assay [2], 0.52 µM; in assay [10], 0.34 µM; in assay [3] it was 0.543 µM; in assay [5], 0.133 µM; in [6], 0.904 µM. Also, the GI50 in assay [7] is 0.34 µM; in assay [8] it was 0.0914 µM; in assay [9] it was 0.194 µM. For the same molecule, the TGI in assay [1] is 3.71 µM; in assay [2], 3.06 µM; in [10] it was 11.5 µM; in assay [3] it was 10 µM; in [5], 3.09 µM; in [6], 12 µM. Also, the results for the TGI in assay [7], in assay [8] and in [9] were 14.2 µM, 1.21 µM and 1.29 µM, respectively.
Consider `[N-]=[N+]=N[C@H]1C[C@@H](CO)O[C@H]1n1cnc2c(N)ncnc21`, for which the TGI in assay [1], in assay [2], in [10], in assay [3], in assay [5] and in assay [6] was > 100 µM throughout. The TGI in assay [7], in assay [8] and in [9] was > 100 µM each time.
`COc1cccc(C2=NC(C(C)C)CO2)c1` (configuration not stated): the TGI in assay [1], in [2], in assay [10], in assay [3], in assay [5] and in [6] was > 100 µM in each case. In addition, the TGI in [7], in assay [8] and in assay [9] was > 100 µM throughout.
With `COc1cc2c3c(n(C)c(=O)c2cc1OC)-c1cc2c(cc1/C3=C\CN)OCO2`, the GI50 in assay [1] was 0.133 µM; in [2], 24.1 µM; in assay [10] it was 0.189 µM; in [3], 0.621 µM; in assay [5] it was 4.04 µM; in assay [6], 0.037 µM. The GI50 in assay [7] is 2.16 µM; in [9] it was 0.156 µM. For the same molecule, the TGI in assay [1] is 1.46 µM; in assay [2], > 100 µM; in [10] it was 17 µM; in assay [3], > 41.1 µM; in [5], 32.8 µM; in [6] it was 0.625 µM. Moreover, the TGI was > 35.7 µM in [7] and 0.614 µM in assay [8].
On to `O=C(Nc1nc(=S)c2c(ncn2CCOC(=O)c2ccccc2)[nH]1)c1ccccc1`, for which the TGI in assay [1] is > 100 µM; in assay [2] it was > 100 µM; in assay [10], 79.6 µM; in [3], > 100 µM; in assay [5], > 100 µM; in [6] it was > 100 µM. For the same molecule, the TGI in assay [7], in assay [8] and in assay [9] was > 100 µM in each case.
Consider `COc1cc(-n2cc(-c3ccc(F)cc3)[nH]c2=O)cc(OC)c1OC`, for which the GI50 in [1], in assay [2], in [10], in assay [3], in assay [5] and in [6] was > 100 µM in each case. Also, the GI50 in assay [7], in [8] and in [9] was > 100 µM in each case. Besides, the TGI in assay [1], in assay [2], in [10], in [3], in [5] and in [6] was > 100 µM in each case. Moreover, the TGI in assay [7], in [8] and in assay [9] was > 100 µM throughout.
Regarding `Cc1ccccc1N1C(=O)C2C=CC(n3[nH]c(=O)n(Cc4ccccc4)c3=O)CC2C1=O` (configuration not stated), the TGI in [1], in [2], in [10], in [3], in [5] and in assay [6] was > 100 µM each time. Besides, the TGI in assay [7], in assay [8] and in [9] was > 100 µM in each case.
Take `COc1cc(NCc2ccc3nc(N)nc(N)c3c2C)cc(OC)c1OC` (tested in a mixture with another compound): the GI50 in [1] is 0.000242 µM; in assay [2], 0.339 µM; in assay [5], 23.2 µM and 4.8 µM; in assay [6], 0.0736 µM and 0.025 µM; in assay [7], 0.0287 µM; in [8] it was 0.000372 µM. Besides, the TGI in assay [1] was 38.3 µM; in assay [2], 42.3 µM and 55.1 µM; in [4], > 44.4 µM; in assay [5] it was 47.5 µM; in [6], 32.8 µM; in [7] it was 35.9 µM. In [9], this molecule gave a TGI of 45.1 µM.

The values are drawn from PubChem BioAssay (NCI).
